Earlier results as cited in patent US20240299372A1, “Transdermal Drug Delivery Systems for Administration of a Therapeutically Effective Amount of Apixaban and Other Direct Oral Anticoagulants” (Pike Therapeutics Inc., priority 2023, published 2024).

Legend:
[1] = for Absolute oral bioavailability: oral administration; for bioavailability: oral, background statement on GI tract exposure
[2] = oral administration; literature refs [1-4]

Absolute oral bioavailability [1] | bleeding complications as reason for DOAC discontinuation [2] | bioavailability [1] | Structure (SMILES)
approx. 50% | 5.7-10.1% |  | COc1ccc(-n2nc(C(N)=O)c3c2C(=O)N(c2ccc(N4CCCCC4=O)cc2)CC3)cc1 [Apixaban, 1-(4-methoxyphenyl)-7-oxo-6-[4-(2-oxopiperidin-1-yl)phenyl]-4,5-dihydropyrazolo[3,4-c]pyridine-3-carboxamide]
approx. 34% |  |  | COc1ccc(NC(=O)c2ccc(C(=N)N(C)C)cc2)c(C(=O)Nc2ccc(Cl)cn2)c1 [Betrixaban, N-(5-chloropyridin-2-yl)-2-[[4-(N,N-dimethylcarbamimidoyl)benzoyl]amino]-5-methoxybenzamide]
3%-7 | 3.4-9.7% | 6% | [H]/N=C(/N)c1ccc(NCc2nc3cc(C(=O)N(CCC(=O)O)c4ccccn4)ccc3n2C)cc1 [Dabigatran, 3-[[2-[(4-carbamimidoylanilino)methyl]-1-methylbenzimidazole-5-carbonyl]-pyridin-2-ylamino]propanoic acid]
approx. 62% |  |  | CN1CCc2nc(C(=O)N[C@@H]3C[C@@H](C(=O)N(C)C)CC[C@@H]3NC(=O)C(=O)Nc3ccc(Cl)cn3)sc2C1 [Edoxaban, N′-(5-chloropyridin-2-yl)-N-[(1S,2R, 4S)-4-(dimethylcarbamoyl)-2-[(5-methyl-6,7-dihydro-4H-[1,3]thiazolo[5,4-c]pyridine-2-carbonyl)amino]cyclohexyl]oxamide]
80%-100 | 16.8-24.5% | 60-80% | O=C(NC[C@H]1CN(c2ccc(N3CCOCC3=O)cc2)C(=O)O1)c1ccc(Cl)s1 [Rivaroxaban, 5-chloro-N-[[(5S)-2-oxo-3-[4-(3-oxomorpholin-4-yl)phenyl]-1,3-oxazolidin-5-yl]methyl]thiophene-2-carboxamide]
